pIC50: −log10 of the molar value.

In this assay the target is MTH1 (Homo sapiens, UniProt P36639). As to the kind of experiment: MTH1 enzymatic assay (malachite green, coupled to pyrophosphatase). Type of assay: biochemical. The settings on record: dGTP 100 μM, MTH1 6 nM; 96- or 384-well format; read-out: IC50.
One may read the pIC50 as the negative decadic logarithm of the IC50, by convention in mol/L. On to `Nc1nc(NCCCCNC(=O)C(F)(F)F)cc(-c2cccc(Cl)c2Cl)n1` [Example 470, N-(4-{[2-amino-6-(2,3-dichlorophenyl)pyrimidin-4-yl]amino}butyl)-2,2,2-trifluoroacetamide], for which the pIC50 is more than 6.70.

In the case of `CS(=O)(=O)c1ccc(C(=O)NCCCCNc2cc(-c3cccc(Cl)c3Cl)nc(N)n2)cc1` [Example 471, N-(4-{[2-amino-6-(2,3-dichlorophenyl)pyrimidin-4-yl]amino}butyl)-4-methanesulfonylbenzamide], the negative logarithm of the IC50 (pIC50) was more than 6.70.

On to `Nc1nc(NCCCCNC(=O)c2ccno2)cc(-c2cccc(Cl)c2Cl)n1` [Example 472, N-(4-{[2-amino-6-(2,3-dichlorophenyl)pyrimidin-4-yl]amino}butyl)-1,2-oxazole-5-carboxamide], for which the pIC50 is more than 6.70.

Take `Nc1nc(NCCCCNC(=O)c2ccc(Cl)c(Cl)c2)cc(-c2cccc(Cl)c2Cl)n1` [Example 473, N-(4-{[2-amino-6-(2,3-dichlorophenyl)pyrimidin-4-yl]amino}butyl)-3,4-dichlorobenzamide]: the pIC50 was more than 6.70.

`CC(C)(C)C(=O)NCCCCNc1cc(-c2cccc(Cl)c2Cl)nc(N)n1` [Example 474, N-(4-{[2-amino-6-(2,3-dichlorophenyl)pyrimidin-4-yl]amino}butyl)-2,2-dimethylpropanamide]: the pIC50 is more than 6.70.

For the compound `CS(=O)(=O)c1ccc(S(=O)(=O)NCCCCNc2cc(-c3cccc(Cl)c3Cl)nc(N)n2)cc1` [Example 475, N-(4-{[2-amino-6-(2,3-dichlorophenyl)pyrimidin-4-yl]amino}butyl)-4-methanesulfonylbenzene-1-sulfonamide], the negative-log IC50 (pIC50) is more than 6.70.

In the case of `CNc1cc(-c2ccoc2C)nc(N)n1` [Example 478, 4-N-methyl-6-(2-methylfuran-3-yl)pyrimidine-2,4-diamine], the pIC50 was more than 6.70.

Take `CNc1cc(-c2ccc(CN3CCCC3)s2)nc(N)n1` [Example 479, 4-N-methyl-6-[5-(pyrrolidin-1-ylmethyl)thiophen-2-yl]pyrimidine-2,4-diamine]: the pIC50 is more than 6.70.

Turning to `Nc1nc(NCCc2ccc(Cl)cc2)cc(-c2ccccc2CO)n1` [Example 481, [2-(2-amino-6-{[2-(4-chlorophenyl)ethyl]amino}pyrimidin-4-yl)phenyl]methanol], the pIC50 is more than 6.70.

As for `Cc1c(Cl)cccc1-c1cc(NC2CC2)nc(N)n1` [Example 482, 6-(3-chloro-2-methylphenyl)-4-N-cyclopropylpyrimidine-2,4-diamine], the pIC50 was more than 6.70.

In the case of `Cc1c(Cl)cccc1-c1cc(NCCF)nc(N)n1` [Example 483, 6-(3-chloro-2-methylphenyl)-4-N-(2-fluoroethyl)pyrimidine-2,4-diamine], the pIC50 is more than 6.70.

On to `Cc1cccc(-c2cc(NCCF)nc(N)n2)c1C` [Example 484, 6-(2,3-dimethylphenyl)-4-N-(2-fluoroethyl)pyrimidine-2,4-diamine], for which the pIC50 is more than 6.70.

Take `CNc1cc(-c2cnn(CCC(N)=O)c2)nc(N)n1` [Example 487, 3-{4-[2-amino-6-(methylamino)pyrimidin-4-yl]-1H-pyrazol-1-yl}propanamide]: the pIC50 was more than 6.70.

Turning to `COc1cc(C)c(NCCNc2cc(-c3cccc(C)c3C)nc(N)n2)cn1` [Example 490, 6-(2,3-dimethylphenyl)-4-N-{2-[(6-methoxy-4-methylpyridin-3-yl)amino]ethyl}pyrimidine-2,4-diamine], the negative logarithm of the IC50 (pIC50) was more than 6.70.

For `NC(=O)COc1cccc(-c2cc(NCCc3ccc(Cl)cc3)nc(N)n2)c1` [Example 498, 2-[3-(2-amino-6-{[2-(4-chlorophenyl)ethyl]amino}pyrimidin-4-yl)phenoxy]acetamide], the pIC50 was more than 6.70.

As for `Cc1cccc(-c2cc(NCCNc3cnccn3)nc(N)n2)c1C` [Example 500, 6-(2,3-dimethylphenyl)-4-N-{2-[(pyrazin-2-yl)amino]ethyl}pyrimidine-2,4-diamine], the negative logarithm of the IC50 (pIC50) was more than 6.70.

With `Cc1cccc(-c2cc(NCCNc3cc(Cl)ncn3)nc(N)n2)c1C` [Example 501, 4-N-{2-[(6-chloropyrimidin-4-yl)amino]ethyl}-6-(2,3-dimethylphenyl)pyrimidine-2,4-diamine], the pIC50 is more than 6.70.

As to `CNc1cc(-c2ccccc2CO)nc(N)n1` [Example 508, {2-[2-amino-6-(methylamino)pyrimidin-4-yl]phenyl}methanol], the pIC50 is more than 6.70.

For the compound `Nc1nc(NCCc2ccc(S(N)(=O)=O)cc2)cc(-c2ccccc2CO)n1` [Example 509, 4-[2-({2-amino-6-[2-(hydroxymethyl)phenyl]pyrimidin-4-yl}amino)ethyl]benzene-1-sulfonamide], the pIC50 was more than 6.70.

In the case of `Cc1cccc(-c2cc(NCCNc3cc(C(N)=O)ccn3)nc(N)n2)c1C` [Example 514, 2-[(2-{[2-amino-6-(2,3-dimethylphenyl)pyrimidin-4-yl]amino}ethyl)amino]pyridine-4-carboxamide], the negative-log IC50 (pIC50) was more than 6.70.

As to `Cc1c(NC(=O)c2ccc(Cl)cc2O)cccc1-c1cc(NCCc2ccc(S(C)(=O)=O)cc2)nc(N)n1` [Example 516, N-[3-(2-amino-6-{[2-(4-methanesulfonylphenyl)ethyl]amino}pyrimidin-4-yl)-2-methylphenyl]-4-chloro-2-hydroxybenzamide], the pIC50 was more than 6.70.

As to `Cc1cccc(-c2cc(NCCc3c[nH]c4ccc(O)cc34)nc(N)n2)c1C` [Example 517, 3-(2-{[2-amino-6-(2,3-dimethylphenyl)pyrimidin-4-yl]amino}ethyl)-1H-indol-5-ol], the negative-log IC50 (pIC50) was more than 6.70.

For the compound `Cc1cccc(-c2cc(NCCc3c[nH]c4ccc(OCc5ccccc5)cc34)nc(N)n2)c1C` [Example 518, 4-N-{2-[5-(benzyloxy)-1H-indol-3-yl]ethyl}-6-(2,3-dimethylphenyl)pyrimidine-2,4-diamine], the negative-log IC50 (pIC50) was more than 6.70.

In the case of `Cc1cccc(-c2cc(NCCc3c[nH]c4ccc(Br)cc34)nc(N)n2)c1C` [Example 519, 4-N-[2-(5-bromo-1H-indol-3-yl)ethyl]-6-(2,3-dimethylphenyl)pyrimidine-2,4-diamine], the pIC50 was more than 6.70.

Consider `COc1ccc2[nH]cc(CCNc3cc(-c4cccc(C)c4C)nc(N)n3)c2c1` [Example 520, 6-(2,3-dimethylphenyl)-4-N-[2-(5-methoxy-1H-indol-3-yl)ethyl]pyrimidine-2,4-diamine], for which the negative-log IC50 (pIC50) was more than 6.70.

With `Cc1cccc(-c2cc(NCCc3c[nH]c4c(C)cccc34)nc(N)n2)c1C` [Example 521, 6-(2,3-dimethylphenyl)-4-N-[2-(7-methyl-1H-indol-3-yl)ethyl]pyrimidine-2,4-diamine], the negative logarithm of the IC50 (pIC50) was more than 6.70.

Regarding `Cc1cccc(-c2cc(NCCc3c[nH]c4c(OCc5ccccc5)cccc34)nc(N)n2)c1C` [Example 522, 4-N-{2-[7-(benzyloxy)-1H-indol-3-yl]ethyl}-6-(2,3-dimethylphenyl)pyrimidine-2,4-diamine], the negative logarithm of the IC50 (pIC50) is more than 6.70.

For the compound `COc1ccc2c(CCNc3cc(-c4cccc(C)c4C)nc(N)n3)c[nH]c2c1` [Example 523, 6-(2,3-dimethylphenyl)-4-N-[2-(6-methoxy-1H-indol-3-yl)ethyl]pyrimidine-2,4-diamine], the pIC50 was more than 6.70.

As for `CC1CC1Nc1cc(-c2cccc(Cl)c2Cl)nc(N)n1` (stereo not shown) [Example 524, 6-(2,3-dichlorophenyl)-4-N-(2-methylcyclopropyl)pyrimidine-2,4-diamine], the negative logarithm of the IC50 (pIC50) is more than 6.70.

For `Cc1cccc(-c2cc(NCCNc3ccc(-c4nnn[nH]4)cc3)nc(N)n2)c1C` [Example 543, 6-(2,3-dimethylphenyl)-4-N-(2-{[4-(1H-1,2,3,4-tetrazol-5-yl)phenyl]amino}ethyl)pyrimidine-2,4-diamine], the pIC50 is more than 6.70.

`COc1ccc(NCCNc2cc(-c3cccc(C)c3C)nc(N)n2)cc1S(=O)(=O)O` [Example 545, 5-[(2-{[2-amino-6-(2,3-dimethylphenyl)pyrimidin-4-yl]amino}ethyl)amino]-2-methoxybenzene-1-sulfonic Acid]: the negative-log IC50 (pIC50) is more than 6.70.

In the case of `Nc1nc(NCCc2ccc(S(N)(=O)=O)cc2)cc(C2=CCN(S(=O)(=O)C3CC3)CC2)n1` [Example 555, 4-[2-({2-amino-6-[1-(cyclopropanesulfonyl)-1,2,3,6-tetrahydropyridin-4-yl]pyrimidin-4-yl}amino)ethyl]benzene-1-sulfonamide], the negative logarithm of the IC50 (pIC50) is more than 6.70.

For the compound `Cc1cccc(-c2cc(NCCNc3cc(-c4cccc(C)c4C)nc(N)n3)nc(N)n2)c1C` [Example 561, 4-N-(2-{[2-amino-6-(2,3-dimethylphenyl)pyrimidin-4-yl]amino}ethyl)-6-(2,3-dimethylphenyl)pyrimidine-2,4-diamine], the pIC50 is more than 6.70.

Regarding `Cc1c(Cl)cccc1-c1cc(NC2CC2C)nc(N)n1` (stereo not shown) [Example 581, 6-(3-chloro-2-methylphenyl)-4-N-(2-methylcyclopropyl)pyrimidine-2,4-diamine], the pIC50 is more than 6.70.

`Cc1cccc(-c2cc(NC3CNC3)nc(N)n2)c1C` [Example 589, 4-N-(azetidin-3-yl)-6-(2,3-dimethylphenyl)pyrimidine-2,4-diamine]: the negative-log IC50 (pIC50) was 5.00 to 5.70.

For `Cc1c(Cl)cccc1-c1cc(NCCc2ccc(NC(=O)C3CC3)cc2)nc(N)n1` [Example 597, N-[4-(2-{[2-amino-6-(3-chloro-2-methylphenyl)pyrimidin-4-yl]amino}ethyl)phenyl]cyclopropanecarboxamide], the negative-log IC50 (pIC50) is more than 6.70.

Turning to `Cc1cccc(-c2cc(NCCc3cccs3)nc(N)n2)c1C` [Example 598, 6-(2,3-dimethylphenyl)-4-N-[2-(thiophen-2-yl)ethyl]pyrimidine-2,4-diamine], the pIC50 was more than 6.70.

Regarding `Cc1c(Cl)cccc1-c1cc(NCCc2ccc(Cl)c(Cl)c2)nc(N)n1` [Example 599, 6-(3-chloro-2-methylphenyl)-4-N-[2-(3,4-dichlorophenyl)ethyl]pyrimidine-2,4-diamine], the negative logarithm of the IC50 (pIC50) is more than 6.70.

Take `Cc1c(Cl)cccc1-c1cc(NCCc2ccc(Cl)cc2Cl)nc(N)n1` [Example 600, 6-(3-chloro-2-methylphenyl)-4-N-[2-(2,4-dichlorophenyl)ethyl]pyrimidine-2,4-diamine]: the pIC50 was more than 6.70.

Take `Cc1c(Cl)cccc1-c1cc(NCCc2ccc(C#N)cc2)nc(N)n1` [Example 625, 4-(2-{[2-amino-6-(3-chloro-2-methylphenyl)pyrimidin-4-yl]amino}ethyl)benzonitrile]: the negative-log IC50 (pIC50) is more than 6.70.

(Values after patent US10632125B2, “MTH1 inhibitors for treatment of inflammatory and autoimmune conditions” (THOMAS HELLEDAYS STIFTELSE FÖR MEDICINSK FORSKNING, priority 2014, dated 2020).)
